The target in assay [1] is T1, Ectonucleotide pyrophosphatase/phosphodiesterase family member 1 (Homo sapiens) (UniProt P22413).
T1 sequence (whole entry): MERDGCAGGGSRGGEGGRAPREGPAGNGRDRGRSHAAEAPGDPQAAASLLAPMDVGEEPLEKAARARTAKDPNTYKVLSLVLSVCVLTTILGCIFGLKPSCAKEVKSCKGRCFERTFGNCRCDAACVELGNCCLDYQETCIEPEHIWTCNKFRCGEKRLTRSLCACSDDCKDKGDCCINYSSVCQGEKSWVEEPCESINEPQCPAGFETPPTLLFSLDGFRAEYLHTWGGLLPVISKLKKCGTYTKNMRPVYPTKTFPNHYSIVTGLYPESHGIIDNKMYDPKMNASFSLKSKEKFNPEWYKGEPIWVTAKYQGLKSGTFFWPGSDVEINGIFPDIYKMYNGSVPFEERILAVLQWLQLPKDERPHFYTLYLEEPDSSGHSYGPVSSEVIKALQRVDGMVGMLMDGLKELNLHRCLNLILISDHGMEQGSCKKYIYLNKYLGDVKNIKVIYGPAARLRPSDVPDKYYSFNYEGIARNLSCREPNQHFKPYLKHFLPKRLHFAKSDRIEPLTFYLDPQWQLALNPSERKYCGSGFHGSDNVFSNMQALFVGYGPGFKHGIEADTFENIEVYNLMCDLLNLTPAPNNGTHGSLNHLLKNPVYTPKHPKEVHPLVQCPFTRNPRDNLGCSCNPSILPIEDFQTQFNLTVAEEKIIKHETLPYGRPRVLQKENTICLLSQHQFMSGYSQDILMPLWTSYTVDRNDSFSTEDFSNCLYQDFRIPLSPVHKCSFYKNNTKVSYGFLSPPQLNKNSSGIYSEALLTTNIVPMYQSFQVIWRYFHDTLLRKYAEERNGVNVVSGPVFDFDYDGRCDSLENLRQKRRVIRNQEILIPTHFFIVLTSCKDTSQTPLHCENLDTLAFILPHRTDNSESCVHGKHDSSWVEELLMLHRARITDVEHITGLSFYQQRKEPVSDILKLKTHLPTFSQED
As to the kind of experiment: Inhibition of human NPP1 using ATP as substrate at 100 uM after 20 mins by reversed-phase HPLC analysis.

Assay [2] has as its target T2, Ectonucleotide pyrophosphatase/phosphodiesterase family member 3 (Homo sapiens) (UniProt O14638).
T2 sequence (whole entry): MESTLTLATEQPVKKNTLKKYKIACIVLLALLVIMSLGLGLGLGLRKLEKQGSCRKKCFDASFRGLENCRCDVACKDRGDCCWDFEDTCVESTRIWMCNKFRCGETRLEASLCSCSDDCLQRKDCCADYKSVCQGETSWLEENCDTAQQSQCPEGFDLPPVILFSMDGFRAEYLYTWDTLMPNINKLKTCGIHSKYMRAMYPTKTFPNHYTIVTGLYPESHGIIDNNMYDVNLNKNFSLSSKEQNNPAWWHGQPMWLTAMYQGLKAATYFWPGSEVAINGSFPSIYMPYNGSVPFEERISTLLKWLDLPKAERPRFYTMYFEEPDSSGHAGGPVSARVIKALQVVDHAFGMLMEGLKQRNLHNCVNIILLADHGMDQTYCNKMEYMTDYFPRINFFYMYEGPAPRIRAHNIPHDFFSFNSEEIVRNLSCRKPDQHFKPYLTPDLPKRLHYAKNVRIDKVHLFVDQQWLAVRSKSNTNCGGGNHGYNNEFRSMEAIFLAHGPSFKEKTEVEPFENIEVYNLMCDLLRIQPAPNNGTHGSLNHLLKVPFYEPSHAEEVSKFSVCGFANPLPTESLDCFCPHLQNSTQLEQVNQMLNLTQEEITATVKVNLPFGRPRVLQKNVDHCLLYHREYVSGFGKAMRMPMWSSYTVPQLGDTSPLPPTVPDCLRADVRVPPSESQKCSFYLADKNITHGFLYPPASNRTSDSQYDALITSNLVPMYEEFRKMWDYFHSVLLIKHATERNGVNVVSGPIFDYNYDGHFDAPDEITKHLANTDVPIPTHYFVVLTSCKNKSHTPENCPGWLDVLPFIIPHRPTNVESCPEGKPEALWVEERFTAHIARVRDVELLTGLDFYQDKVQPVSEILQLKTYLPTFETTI
As to the kind of experiment: Inhibition of human NPP3 using pNP-TMP as substrate at 100 uM after 20 mins by reversed-phase HPLC analysis.

Assay [3] deals with T3, P2Y purinoceptor 11 (Homo sapiens) (UniProt Q96G91).
T3 sequence (whole entry): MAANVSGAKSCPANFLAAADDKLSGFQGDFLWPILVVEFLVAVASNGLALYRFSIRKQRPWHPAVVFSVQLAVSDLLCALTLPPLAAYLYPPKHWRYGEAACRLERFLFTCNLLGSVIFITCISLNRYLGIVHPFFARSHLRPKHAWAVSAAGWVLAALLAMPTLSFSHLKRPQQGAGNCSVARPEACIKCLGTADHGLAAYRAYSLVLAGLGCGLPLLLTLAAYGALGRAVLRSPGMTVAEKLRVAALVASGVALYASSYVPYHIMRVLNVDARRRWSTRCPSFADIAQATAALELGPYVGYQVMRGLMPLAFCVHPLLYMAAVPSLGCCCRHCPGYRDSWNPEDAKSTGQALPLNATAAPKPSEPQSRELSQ
As to the kind of experiment: Agonist activity at human P2Y11 receptor expressed in human 1321N1 cells assessed as increase of intracellular calcium level up to 10 uM after 30 mins using fura-2 AM by fluorescence assay. Type of assay: functional, cell-based. Background: A change in cytosolic calcium serves as a functional read-out for many receptors and channels.

The target of assay [4] is T4, Alkaline phosphatase, tissue-nonspecific isozyme (Homo sapiens) (UniProt P05186).
T4 sequence (whole entry): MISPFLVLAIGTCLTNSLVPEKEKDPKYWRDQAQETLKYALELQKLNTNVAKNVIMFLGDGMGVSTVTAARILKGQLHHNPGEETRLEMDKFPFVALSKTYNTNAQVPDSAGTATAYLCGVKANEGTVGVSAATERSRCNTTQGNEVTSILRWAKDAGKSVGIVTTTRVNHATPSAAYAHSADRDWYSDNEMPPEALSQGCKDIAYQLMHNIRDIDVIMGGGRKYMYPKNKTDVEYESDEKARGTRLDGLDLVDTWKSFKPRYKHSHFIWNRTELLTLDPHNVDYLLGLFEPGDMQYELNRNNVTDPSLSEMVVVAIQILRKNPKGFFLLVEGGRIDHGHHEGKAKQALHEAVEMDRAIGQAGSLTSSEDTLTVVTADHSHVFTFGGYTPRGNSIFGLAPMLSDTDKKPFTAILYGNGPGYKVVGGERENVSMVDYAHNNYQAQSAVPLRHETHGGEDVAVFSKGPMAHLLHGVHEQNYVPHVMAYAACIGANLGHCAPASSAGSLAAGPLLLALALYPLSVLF
As to the kind of experiment: Inhibition of TNAP (unknown origin) using ATP as substrate assessed as inorganic phosphate release at 100 uM after 15 mins relative to control.

The target in assay [5] is P2Y purinoceptor 2 (Homo sapiens) (UniProt P41231). As to the kind of experiment: Agonist activity at human P2Y2 receptor expressed in human 1321N1 cells assessed as increase of intracellular calcium level at 100 uM after 30 mins using fura-2 AM by fluorescence assay. Type of assay: functional, cell-based.
Assay [6] has the same target. As to the kind of experiment: Antagonist activity at human P2Y2 receptor expressed in human 1321N1 cells assessed as effect on UTP-induced effect. The class given is cell-based.

Calls of active or inactive are those of the source. No cut-off for these calls is given here.

P2Y purinoceptor 2 (Homo sapiens), sequence (P41231 whole entry): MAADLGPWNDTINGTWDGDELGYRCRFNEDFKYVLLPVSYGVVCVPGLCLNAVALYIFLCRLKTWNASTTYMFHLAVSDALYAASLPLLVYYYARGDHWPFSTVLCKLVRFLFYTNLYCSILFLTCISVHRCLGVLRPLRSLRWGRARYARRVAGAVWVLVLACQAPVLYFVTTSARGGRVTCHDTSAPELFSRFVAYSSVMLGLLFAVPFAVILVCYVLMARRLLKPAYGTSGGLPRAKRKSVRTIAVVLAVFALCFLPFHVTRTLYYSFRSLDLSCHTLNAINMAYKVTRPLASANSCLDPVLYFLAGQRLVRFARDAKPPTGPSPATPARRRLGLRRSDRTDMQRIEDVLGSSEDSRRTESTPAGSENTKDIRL

Consider `Nc1ncnc2c1ncn2[C@@H]1O[C@H](CO[P@](O)(=S)OP(=O)(O)CP(=O)(O)O)[C@@H](O)[C@H]1O`, for which the inhibition result in assay [1] was “Active”. In addition, in assay [2], the inhibition came to 23%. Moreover, in assay [3], the outcome was inactive.

As for `Nc1ncnc2c1ncn2[C@@H]1O[C@H](CO[P@@](O)(=S)OP(=O)(O)CP(=O)(O)O)[C@@H](O)[C@H]1O`, the inhibition result in assay [1] is “Active”. The compound also returned an inhibition in assay [2] of 23%.

With `Nc1ncnc2c1ncn2[C@@H]1O[C@H](CO[P@](O)(=S)OP(=O)(O)C(Cl)(Cl)P(=O)(O)O)[C@@H](O)[C@H]1O`, the inhibition result in assay [1] was “Active”. Moreover, the figures for the inhibition in assay [4] and in assay [2] were 17% and 23%, respectively. In addition, the result in assay [5] was inactive. Moreover, the inhibition entry in assay [6] was “inactive”.

`Nc1ncnc2c1ncn2[C@@H]1O[C@H](COP(=O)(O)CP(=O)(O)OP(O)(O)=S)[C@@H](O)[C@H]1O`: the inhibition entry in assay [1] was “Active”. Also, the inhibition in assay [4] amounted to 8%; in assay [2], 23%. Also, the result in assay [5] was inactive. Further, the inhibition result in assay [6] is “inactive”.

With `Nc1ncnc2c1ncn2[C@@H]1O[C@H](CO[P@@](O)(=S)OP(=O)(O)C(Cl)(Cl)P(=O)(O)O)[C@@H](O)[C@H]1O`, the inhibition result in assay [1] was “Active”. Moreover, in assay [2], the inhibition was 23%.

As a reminder, the inhibition is the relative decrease from the control value, in per cent.

The values are drawn from ChEMBL document CHEMBL3286381 (J Med Chem, 2014).
